According to the NIST ThermoML archive (doi:10.1016/j.tca.2006.05.010):

Columns and labels:
[1] = 101.33 kPa, Liquid, Vibrating tube method
[2] = molar heat capacity at constant pressure; details: 101.33 kPa, Liquid, Small sample (50 mg) DSC
[3] = refractive index (Na D-line) (dimensionless); details: 101.33 kPa, Liquid, Standard Abbe refractometry
[4] = molar heat capacity at constant pressure; xn = mol fraction of the nth substance listed; details: 308.15 K, 101 kPa, Liquid, Small sample (50 mg) DSC
[5] = excess molar enthalpy (molar enthalpy of mixing); xn = mol fraction of the nth substance listed; details: 308.15 K, 101 kPa, Liquid, Flow calorimetry

C1COCO1 [1,3-dioxolane]
Details | mass density [kg/m3] | molar heat capacity at constant pressure [J/K/mol] | refractive index
[1], 298.15 K | 1058.79 | – | –
[1], 308.15 K | 1046.4 | – | –
[2], 288.15 K | – | 118.8 | –
[2], 293.15 K | – | 120.3 | –
[2], 298.15 K | – | 121.7 | –
[2], 303.15 K | – | 123.3 | –
[2], 308.15 K | – | 124.4 | –
[2], 313.15 K | – | 125.3 | –
[2], 318.15 K | – | 126.8 | –
[2], 323.15 K | – | 128.1 | –
[2], 328.15 K | – | 129.5 | –
[3], 298.15 K | – | – | 1.3983
[3], 308.15 K | – | – | 1.3934

C1COCO1 [1,3-dioxolane] + C[S+](C)[O-]
Details | excess molar enthalpy [kJ/mol] | molar heat capacity at constant pressure [J/K/mol]
[4], x2 = 0.0532 | – | 125.2
[4], x2 = 0.1036 | – | 126.2
[4], x2 = 0.1897 | – | 128.2
[4], x2 = 0.3044 | – | 131.3
[4], x2 = 0.3922 | – | 133.9
[4], x2 = 0.5058 | – | 137.3
[4], x2 = 0.5455 | – | 138.5
[4], x2 = 0.5936 | – | 139.9
[4], x2 = 0.7053 | – | 143.4
[4], x2 = 0.781 | – | 145.9
[4], x2 = 0.9015 | – | 150.3
[4], x2 = 0.9431 | – | 152
[5], x2 = 0.0394 | 0.061 | –
[5], x2 = 0.0757 | 0.107 | –
[5], x2 = 0.1095 | 0.14 | –
[5], x2 = 0.1408 | 0.171 | –
[5], x2 = 0.1974 | 0.2 | –
[5], x2 = 0.2469 | 0.226 | –
[5], x2 = 0.3297 | 0.25 | –
[5], x2 = 0.3959 | 0.263 | –
[5], x2 = 0.4959 | 0.271 | –
[5], x2 = 0.5961 | 0.264 | –
[5], x2 = 0.663 | 0.255 | –
[5], x2 = 0.7469 | 0.235 | –
[5], x2 = 0.7973 | 0.217 | –
[5], x2 = 0.8551 | 0.179 | –
[5], x2 = 0.8872 | 0.148 | –
[5], x2 = 0.9219 | 0.112 | –
[5], x2 = 0.9594 | 0.065 | –

C1CCOC1 [tetrahydrofuran] + C[S+](C)[O-]
Details | excess molar enthalpy [kJ/mol] | molar heat capacity at constant pressure [J/K/mol]
[4], x2 = 0.0807 | – | 132.9
[4], x2 = 0.1171 | – | 133.6
[4], x2 = 0.2353 | – | 135.9
[4], x2 = 0.3233 | – | 137.7
[4], x2 = 0.4932 | – | 141.4
[4], x2 = 0.5284 | – | 142.3
[4], x2 = 0.5833 | – | 143.6
[4], x2 = 0.6359 | – | 144.9
[4], x2 = 0.7298 | – | 147.2
[4], x2 = 0.8269 | – | 149.8
[4], x2 = 0.893 | – | 151.6
[4], x2 = 0.9507 | – | 153.2
[5], x2 = 0.0457 | 0.213 | –
[5], x2 = 0.0875 | 0.372 | –
[5], x2 = 0.1257 | 0.49 | –
[5], x2 = 0.1608 | 0.579 | –
[5], x2 = 0.2233 | 0.699 | –
[5], x2 = 0.2771 | 0.765 | –
[5], x2 = 0.3651 | 0.853 | –
[5], x2 = 0.4339 | 0.87 | –
[5], x2 = 0.5349 | 0.874 | –
[5], x2 = 0.6332 | 0.839 | –
[5], x2 = 0.697 | 0.773 | –
[5], x2 = 0.7753 | 0.682 | –
[5], x2 = 0.8215 | 0.588 | –
[5], x2 = 0.8735 | 0.474 | –
[5], x2 = 0.902 | 0.4 | –
[5], x2 = 0.9325 | 0.291 | –
[5], x2 = 0.965 | 0.163 | –

C1COCCO1 [1,4-dioxane]
Details | mass density [kg/m3] | molar heat capacity at constant pressure [J/K/mol] | refractive index
[1], 298.15 K | 1027.96 | – | –
[1], 308.15 K | 1016.99 | – | –
[2], 288.15 K | – | 146.7 | –
[2], 293.15 K | – | 150 | –
[2], 298.15 K | – | 151 | –
[2], 303.15 K | – | 152.1 | –
[2], 308.15 K | – | 153.7 | –
[2], 313.15 K | – | 155.3 | –
[2], 318.15 K | – | 156.5 | –
[2], 323.15 K | – | 158.4 | –
[2], 328.15 K | – | 160.2 | –
[2], 333.15 K | – | 160.4 | –
[3], 298.15 K | – | – | 1.4202
[3], 308.15 K | – | – | 1.4154

C1CCOCC1 [tetrahydropyran]
Details | mass density [kg/m3] | molar heat capacity at constant pressure [J/K/mol] | refractive index
[1], 298.15 K | 879.31 | – | –
[1], 308.15 K | 868.85 | – | –
[2], 288.15 K | – | 143.9 | –
[2], 293.15 K | – | 146.3 | –
[2], 298.15 K | – | 147.9 | –
[2], 303.15 K | – | 149.7 | –
[2], 308.15 K | – | 151.7 | –
[2], 313.15 K | – | 154.3 | –
[2], 318.15 K | – | 156.5 | –
[2], 323.15 K | – | 159.1 | –
[2], 328.15 K | – | 161.6 | –
[2], 333.15 K | – | 164.2 | –
[3], 298.15 K | – | – | 1.4188
[3], 308.15 K | – | – | 1.4142

C1CCOC1 [tetrahydrofuran]
Details | mass density, [1] [kg/m3] | molar heat capacity at constant pressure, [2] [J/K/mol] | refractive index, [3]
288.15 K | – | 121.1 | –
293.15 K | – | 123.8 | –
298.15 K | 881.9 | 126.4 | 1.4048
303.15 K | – | 128.5 | –
308.15 K | 870.99 | 131.4 | 1.4002
313.15 K | – | 133.2 | –
318.15 K | – | 135.2 | –
323.15 K | – | 136.6 | –

C1COCCO1 [1,4-dioxane] + C[S+](C)[O-]
Details | excess molar enthalpy [kJ/mol] | molar heat capacity at constant pressure [J/K/mol]
[4], x2 = 0.0749 | – | 154.8
[4], x2 = 0.1148 | – | 155.1
[4], x2 = 0.2112 | – | 155.5
[4], x2 = 0.313 | – | 155.4
[4], x2 = 0.4096 | – | 155.1
[4], x2 = 0.5185 | – | 154.6
[4], x2 = 0.6108 | – | 153.9
[4], x2 = 0.6637 | – | 153.5
[4], x2 = 0.7064 | – | 153.2
[4], x2 = 0.8128 | – | 152.5
[4], x2 = 0.8952 | – | 152.7
[4], x2 = 0.9586 | – | 153.5
[5], x2 = 0.0478 | 0.133 | –
[5], x2 = 0.0911 | 0.222 | –
[5], x2 = 0.1308 | 0.281 | –
[5], x2 = 0.1671 | 0.32 | –
[5], x2 = 0.2313 | 0.365 | –
[5], x2 = 0.2863 | 0.386 | –
[5], x2 = 0.3757 | 0.409 | –
[5], x2 = 0.4451 | 0.417 | –
[5], x2 = 0.5462 | 0.404 | –
[5], x2 = 0.6437 | 0.383 | –
[5], x2 = 0.7066 | 0.356 | –
[5], x2 = 0.7831 | 0.31 | –
[5], x2 = 0.828 | 0.272 | –
[5], x2 = 0.8784 | 0.207 | –
[5], x2 = 0.9059 | 0.167 | –
[5], x2 = 0.9353 | 0.116 | –
[5], x2 = 0.9665 | 0.066 | –
